Experimental data from US10538555B2, “Macrocyclic inhibitors of the PD-1/PD-L1 and CD80(B7-1)/PD-L1 protein/protein interactions” (BRISTOL-MYERS SQUIBB COMPANY, priority 2014, dated 2020).
Like-named read-outs stand apart in the source and are kept apart here. *1 amine or outer side, *2 acyl side, *3 side chain or, on linkers, in order; H or OH if unused. Where a SMILES comes first, the peptide text is derived from it. Bridges are numbered along the chain shown (N, C = ends). [ ]: non-standard residue; d: D form. ξ: configuration not given here. X11 = CCCC[C@@H](C(=O)C1C[C@H](O)C[C@@H]1C(=O)[*:2])N(C)[*:1]; Trp(1-CH2COOH) = N[C@@H](Cc1cn(CC(=O)O)c2ccccc12)C(=O)O; Phe(3,4,5-F3) = N[C@@H](Cc1cc(F)c(F)c(F)c1)C(=O)O; Bta = N[C@@H](Cc1csc2ccccc12)C(=O)O; Hyp = O=C(O)[C@@H]1C[C@@H](O)CN1; NMeF = CN[C@@H](Cc1ccccc1)C(=O)O; dHyp = O=C(O)[C@H]1C[C@H](O)CN1; X9 = NN[C@H](N[*:1])C(=O)[*:2]; NMeNle = CCCC[C@H](NC)C(=O)O; dPip = O=C(O)[C@H]1CCCCN1; NMeA = CN[C@@H](C)C(=O)O; Orn = NCCC[C@H](N)C(=O)O; Dab = NCC[C@H](N)C(=O)O; Dap = NC[C@H](N)C(=O)O; ξC = NC(CS)C(=O)O; Sar = CNCC(=O)O

Molecular target: T1, Human PD-L1/PD-1 (Homo sapiens, UniProt Q9NZQ7)
T1 construct: TVMV protease cleavage site (C); made in house; host or cells: HEK293T cells
Test: HTRF Human PD-L1/PD-1 binding assay (PD-1-Ig/PD-L1-His)
Details: PD-L1-His 10 nM, PD-1-Ig 20 nM
Method in brief: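 Competition of macrocyclic peptides for PD-1/PD-L1 binding measured by HTRF in dPBS containing 0.1% BSA and 0.05% Tween-20. Compound and PD-L1-His (10 nM final) incubated 15 min before PD-1-Ig (20 nM final) and a further 15 min.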

[1] = class symbol, read-out: HTRF Human PD-L1/PD-1 Binding Assay IC50 Range

T1 sequence (Q9NZQ7 with tags, fused parts or gaps): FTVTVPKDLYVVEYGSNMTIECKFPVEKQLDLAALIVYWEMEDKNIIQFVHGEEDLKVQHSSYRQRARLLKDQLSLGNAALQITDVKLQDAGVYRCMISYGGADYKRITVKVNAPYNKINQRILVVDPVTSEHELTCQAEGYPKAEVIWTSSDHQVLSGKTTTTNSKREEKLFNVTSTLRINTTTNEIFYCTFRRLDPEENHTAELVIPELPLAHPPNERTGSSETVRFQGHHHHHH

SMILES	IC50 (read-out: HTRF Human PD-L1/PD-1 Binding Assay IC50)	IC50 [1]
CCCC[C@H]1C(=O)N(C)CC(=O)N[C@@H](CC(=O)O)C(=O)N[C@@H](C)C(=O)N(C)[C@@H](Cc2ccccc2)C(=O)N[C@@H](Cc2ccc(O)cc2)C(=O)N2C[C@@H](O)C[C@@H]2C(=O)N[C@@H](Cc2c[nH]c3ccccc23)C(=O)N[C@@H](Cc2ccc(O)cc2)C(=O)N[C@@H](CC(C)C)C(=O)N[C@H](C(=O)NCC(N)=O)CSCC(=O)N[C@@H](Cc2ccccc2)C(=O)N(C)[C@@H](Cc2ccccc2)C(=O)N1C [Example 10083] ({CH2CO}-F[NMeF][NMeNle][Sar]DA[NMeF]Y[dHyp]WYLCG-NH2; thioether N-13)	158 nM	
CCCC[C@H]1C(=O)N(C)[C@@H](CCCC)C(=O)N[C@@H](CCCN)C(=O)N[C@H](C(=O)NCC(N)=O)CSCC(=O)N[C@@H](Cc2ccc(OC)cc2)C(=O)N(C)[C@@H](C)C(=O)N[C@@H](CCN)C(=O)N2CCC[C@H]2C(=O)N[C@@H](CN)C(=O)N[C@@H](CCCCN)C(=O)N2C[C@H](O)C[C@H]2C(=O)N[C@@H](Cc2c[nH]c3ccccc23)C(=O)N[C@@H](CCN)C(=O)N[C@@H](Cc2c[nH]c3ccccc23)C(=O)N1C [Example 7103] ({CH2CO}-Y(Me)[NMeA][Dab]P[Dap]K[Hyp]W[Dab]W[NMeNle][NMeNle][Orn]CG-NH2; thioether N-14)		10 to 99.9 nM
CCCC[C@H]1C(=O)N(C)[C@@H](CCCC)C(=O)N[C@@H](CCC(=O)O)C(=O)N[C@H](C(=O)NCC(N)=O)CSCC(=O)N[C@@H](Cc2ccc(O)cc2)C(=O)N(C)[C@@H](C)C(=O)N[C@@H](CC(N)=O)C(=O)N2CCC[C@H]2C(=O)N[C@@H](Cc2cnc[nH]2)C(=O)N[C@@H](CCC(N)=O)C(=O)N2C[C@H](O)C[C@H]2C(=O)N[C@@H](Cc2c[nH]c3ccccc23)C(=O)N[C@@H](CCC(=O)O)C(=O)N[C@@H](Cc2c[nH]c3ccccc23)C(=O)N1C [Example 5186] ({CH2CO}-Y[NMeA]NPHQ[Hyp]WEW[NMeNle][NMeNle]ECG-NH2; thioether N-14)		1 to 9.9 nM
CCCC[C@H]1C(=O)N(C)[C@@H](CCCC)C(=O)N[C@@H](CCC(=O)O)C(=O)N[C@H](C(=O)NCC(N)=O)CSCC(=O)N[C@@H](Cc2ccc(O)cc2)C(=O)N(C)[C@@H](C)C(=O)N[C@@H](CC(=O)O)C(=O)N2CCC[C@H]2C(=O)N[C@@H](CN)C(=O)N[C@@H](CCC(N)=O)C(=O)N2C[C@H](O)C[C@H]2C(=O)N[C@@H](Cc2c[nH]c3ccccc23)C(=O)N[C@@H](CCN)C(=O)N[C@@H](Cc2c[nH]c3ccccc23)C(=O)N1C [Example 5200] ({CH2CO}-Y[NMeA]DP[Dap]Q[Hyp]W[Dab]W[NMeNle][NMeNle]ECG-NH2; thioether N-14)		1 to 9.9 nM
CCCC[C@H]1C(=O)N(C)[C@@H](CCCC)C(=O)N[C@@H](CCCNC(=N)N)C(=O)N[C@H](C(=O)NCC(N)=O)CSCC(=O)N[C@@H](Cc2ccc(O)cc2)C(=O)N(C)[C@@H](C)C(=O)N[C@@H](CC(N)=O)C(=O)N2CCC[C@H]2C(=O)N[C@@H](NN)C(=O)N[C@@H](CC(C)C)C(=O)N2C[C@H](O)C[C@H]2C(=O)N[C@@H](Cc2c[nH]c3ccccc23)C(=O)N[C@@H]([C@@H](C)O)C(=O)N[C@@H](Cc2c[nH]c3ccccc23)C(=O)N1C [Example 7073] ({CH2CO}-Y[NMeA]NP[X9]L[Hyp]WTW[NMeNle][NMeNle]RCG-NH2; thioether N-14)		1 to 9.9 nM
CCCC[C@H]1C(=O)N(C)[C@@H](CCCC)C(=O)N[C@@H](CC(C)C)C(=O)N[C@H](C(=O)O)CSCC(=O)N[C@@H](Cc2ccc(O)cc2)C(=O)N(C)[C@@H](C)C(=O)N[C@@H](CC(N)=O)C(=O)N2CCC[C@H]2C(=O)N[C@@H](CN)C(=O)N[C@@H](CC(C)C)C(=O)N2C[C@H](O)C[C@H]2C(=O)N[C@@H](Cc2c[nH]c3ccccc23)C(=O)N[C@@H](CCCN)C(=O)N[C@@H](Cc2cn(CC(=O)O)c3ccccc23)C(=O)N1C [Example 5199] ({CH2CO}-Y[NMeA]NP[Dap]L[Hyp]W[Orn][Trp(1-CH2COOH)][NMeNle][NMeNle]LC-OH; thioether N-14)		1 to 9.9 nM
CCCC[C@H]1C(=O)N(C)[C@@H](CCCC)C(=O)N[C@@H](CCC(=O)O)C(=O)N[C@H](C(=O)NCC(N)=O)CSCC(=O)N[C@@H](Cc2ccc(OC)cc2)C(=O)N(C)[C@@H](C)C(=O)N[C@@H](CC(=O)O)C(=O)N2CCC[C@H]2C(=O)N[C@@H](CN)C(=O)N[C@@H](CCCCN)C(=O)N2C[C@H](O)C[C@H]2C(=O)N[C@@H](Cc2c[nH]c3ccccc23)C(=O)N[C@@H](CCN)C(=O)N[C@@H](Cc2cn(CC(=O)O)c3ccccc23)C(=O)N1C [Example 7148] ({CH2CO}-Y(Me)[NMeA]DP[Dap]K[Hyp]W[Dab][Trp(1-CH2COOH)][NMeNle][NMeNle]ECG-NH2; thioether N-14)		1 to 9.9 nM
CCCC[C@H]1C(=O)N2CCC[C@@H]2C(=O)N[C@@H](CC(=O)O)C(=O)N[C@@H](C(C)C)C(=O)N(C)[C@@H](Cc2ccccc2)C(=O)N[C@@H](Cc2ccc(O)cc2)C(=O)N2CCC[C@@H]2C(=O)N[C@@H](Cc2c[nH]c3ccccc23)C(=O)N[C@@H](Cc2ccc(O)cc2)C(=O)N[C@@H](CCCCN)C(=O)N[C@H](C(=O)NCC(N)=O)CSCC(=O)N[C@@H](Cc2cc(F)c(F)c(F)c2)C(=O)N(C)[C@@H](Cc2ccccc2)C(=O)N1C [Example 10096] ({CH2CO}-[Phe(3,4,5-F3)][NMeF][NMeNle][dP]DV[NMeF]Y[dP]WYKCG-NH2; thioether N-13)		1 to 9.9 nM
CCCC[C@H]1C(=O)C2C[C@H](O)C[C@@H]2C(=O)N[C@@H](CC(=O)O)C(=O)N[C@@H](C(C)C)C(=O)N(C)[C@@H](Cc2ccccc2)C(=O)N[C@@H](CCC(=O)O)C(=O)N2CCCC[C@@H]2C(=O)N[C@@H](Cc2c[nH]c3ccccc23)C(=O)N[C@@H](Cc2ccc(O)cc2)C(=O)N[C@@H](CCCN)C(=O)N[C@H](C(=O)NCC(N)=O)CSCC(=O)N[C@@H](Cc2cc(F)c(F)c(F)c2)C(=O)N(C)[C@@H](Cc2ccccc2)C(=O)N1C (stereo partly drawn) [Example 3642] ({CH2CO}-[Phe(3,4,5-F3)][NMeF][X11]DV[NMeF]E[dPip]WY[Orn]CG-NH2; thioether N-12)		10 to 99.9 nM
CCCC[C@H]1C(=O)N(C)[C@@H](CCCC)C(=O)N[C@@H](CCC(=O)O)C(=O)N[C@H](C(=O)NCC(N)=O)CSCC(=O)N[C@@H](Cc2ccc(O)cc2)C(=O)N(C)[C@@H](C)C(=O)N[C@@H](CC(=O)O)C(=O)N2CCC[C@H]2C(=O)N[C@@H](CN)C(=O)N[C@@H](CC(C)C)C(=O)N2C[C@H](O)C[C@H]2C(=O)N[C@@H](Cc2c[nH]c3ccccc23)C(=O)N[C@@H](CCN)C(=O)N[C@@H](Cc2c[nH]c3ccccc23)C(=O)N1C [Example 5162] ({CH2CO}-Y[NMeA]DP[Dap]L[Hyp]W[Dab]W[NMeNle][NMeNle]ECG-NH2; thioether N-14)		1 to 9.9 nM
CCCC[C@H]1C(=O)N(C)[C@@H](CCCC)C(=O)N[C@@H](CCCN)C(=O)NC(C(=O)NCC(N)=O)CSCC(=O)N[C@@H](Cc2ccc(O)cc2)C(=O)N(C)[C@@H](C)C(=O)N[C@@H](CC(N)=O)C(=O)N2CCC[C@H]2C(=O)N[C@@H](CC(N)=O)C(=O)N[C@@H](CC(C)C)C(=O)N2CCC[C@H]2C(=O)N[C@@H](Cc2c[nH]c3ccccc23)C(=O)N[C@@H](CO)C(=O)N[C@@H](Cc2csc3ccccc23)C(=O)N1C (stereo partly drawn) [Example 9156] ({CH2CO}-Y[NMeA]NPNLPWS[Bta][NMeNle][NMeNle][Orn][ξC]G-NH2; thioether N-14)		1 to 9.9 nM
CCCC[C@H]1C(=O)N(C)[C@@H](CCCC)C(=O)N[C@H](C)C(=O)N[C@H](C(=O)NCC(N)=O)CSCC(=O)N[C@@H](Cc2ccc(O)cc2)C(=O)N(C)[C@@H](C)C(=O)N[C@@H](CC(N)=O)C(=O)N2CCC[C@H]2C(=O)N[C@@H](Cc2c[nH]cn2)C(=O)N[C@@H](CCC(=O)O)C(=O)N2C[C@H](O)C[C@H]2C(=O)N[C@@H](Cc2c[nH]c3ccccc23)C(=O)N[C@@H](CCN)C(=O)N[C@@H](Cc2csc3ccccc23)C(=O)N1C [Example 5159] ({CH2CO}-Y[NMeA]NPHE[Hyp]W[Dab][Bta][NMeNle][NMeNle][dA]CG-NH2; thioether N-14)		1 to 9.9 nM
CCCC[C@H]1C(=O)N(C)[C@@H](CCCC)C(=O)N[C@@H](CCCN)C(=O)N[C@H](C(=O)NCC(N)=O)CSCC(=O)N[C@@H](Cc2ccc(OC)cc2)C(=O)N(C)[C@@H](C)C(=O)N[C@@H](CCN)C(=O)N2CCC[C@H]2C(=O)N[C@@H](CN)C(=O)N[C@@H](CCC(=O)O)C(=O)N2C[C@H](O)C[C@H]2C(=O)N[C@@H](Cc2c[nH]c3ccccc23)C(=O)N[C@@H](CC(=O)O)C(=O)N[C@@H](Cc2c[nH]c3ccccc23)C(=O)N1C [Example 7105] ({CH2CO}-Y(Me)[NMeA][Dab]P[Dap]E[Hyp]WDW[NMeNle][NMeNle][Orn]CG-NH2; thioether N-14)		10 to 99.9 nM
CCCC[C@H]1C(=O)N(C)[C@@H](CCCC)C(=O)N[C@@H](C)C(=O)NC(C(=O)NCC(N)=O)CSCC(=O)N[C@@H](Cc2ccc(O)cc2)C(=O)N(C)[C@@H](C)C(=O)N[C@@H](CC(N)=O)C(=O)N2CCC[C@H]2C(=O)N[C@@H](CC(N)=O)C(=O)N[C@@H](CC(C)C)C(=O)N2C[C@H](O)C[C@H]2C(=O)N[C@@H](Cc2c[nH]c3ccccc23)C(=O)N[C@@H](CO)C(=O)N[C@@H](Cc2csc3ccccc23)C(=O)N1C (stereo partly drawn) [Example 9135] ({CH2CO}-Y[NMeA]NPNL[Hyp]WS[Bta][NMeNle][NMeNle]A[ξC]G-NH2; thioether N-14)		1 to 9.9 nM
CCCC[C@H]1C(=O)N(C)[C@@H](CCCC)C(=O)N[C@@H](CCCN)C(=O)N[C@H](C(=O)NCC(N)=O)CSCC(=O)N[C@@H](Cc2ccc(O)cc2)C(=O)N2CCOCC2C(=O)N[C@@H](CC(N)=O)C(=O)N2CCC[C@H]2C(=O)N[C@@H](Cc2c[nH]cn2)C(=O)N[C@@H](CC(C)C)C(=O)N2C[C@H](O)C[C@H]2C(=O)N[C@@H](Cc2c[nH]c3ccccc23)C(=O)N[C@@H](CO)C(=O)N[C@@H](Cc2c[nH]c3ccccc23)C(=O)N1C (stereo partly drawn) [Example 1532]		1 to 9.9 nM
